Test results: patent US8822517B2, “Arylosulfonamides for the treatment of CNS diseases” (Adamed SP. Z O.O., priority 2010, dated 2014)

Assays:
[1] = target: serotoninergic 5-HT2A receptor (Homo sapiens, UniProt P28223); test: Binding assay 5-HT2A (h), [3H]ketanserin, HEK-293 cells; set-up: expressed in transfected cells; host or cells: HEK-293 cells; conditions: read-out: 5-HT2A
How it was run: (§1)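 Radioligand displacement with compounds at 1×10^−6 M, detected by scintillation counting. Specific binding taken as total minus non-specific binding measured with excess unlabelled ligand.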

sigma σ receptor = test: Binding assay σ (non-selective), [3H]DTG, rat cerebral cortex; conditions: percent inhibition of control specific binding; compounds tested at 1×10^−6 M
How it was run: as §1

hERG potassium channels = hERG potassium channels (Homo sapiens, UniProt Q12809); test: hERG potassium channel block, electrophysiology (IonWorks Quattro), CHO cells; conditions: % block of hERG current, cloned hERG channels in CHO cells, IonWorks Quattro
Sequence of hERG potassium channels (Q12809 whole entry): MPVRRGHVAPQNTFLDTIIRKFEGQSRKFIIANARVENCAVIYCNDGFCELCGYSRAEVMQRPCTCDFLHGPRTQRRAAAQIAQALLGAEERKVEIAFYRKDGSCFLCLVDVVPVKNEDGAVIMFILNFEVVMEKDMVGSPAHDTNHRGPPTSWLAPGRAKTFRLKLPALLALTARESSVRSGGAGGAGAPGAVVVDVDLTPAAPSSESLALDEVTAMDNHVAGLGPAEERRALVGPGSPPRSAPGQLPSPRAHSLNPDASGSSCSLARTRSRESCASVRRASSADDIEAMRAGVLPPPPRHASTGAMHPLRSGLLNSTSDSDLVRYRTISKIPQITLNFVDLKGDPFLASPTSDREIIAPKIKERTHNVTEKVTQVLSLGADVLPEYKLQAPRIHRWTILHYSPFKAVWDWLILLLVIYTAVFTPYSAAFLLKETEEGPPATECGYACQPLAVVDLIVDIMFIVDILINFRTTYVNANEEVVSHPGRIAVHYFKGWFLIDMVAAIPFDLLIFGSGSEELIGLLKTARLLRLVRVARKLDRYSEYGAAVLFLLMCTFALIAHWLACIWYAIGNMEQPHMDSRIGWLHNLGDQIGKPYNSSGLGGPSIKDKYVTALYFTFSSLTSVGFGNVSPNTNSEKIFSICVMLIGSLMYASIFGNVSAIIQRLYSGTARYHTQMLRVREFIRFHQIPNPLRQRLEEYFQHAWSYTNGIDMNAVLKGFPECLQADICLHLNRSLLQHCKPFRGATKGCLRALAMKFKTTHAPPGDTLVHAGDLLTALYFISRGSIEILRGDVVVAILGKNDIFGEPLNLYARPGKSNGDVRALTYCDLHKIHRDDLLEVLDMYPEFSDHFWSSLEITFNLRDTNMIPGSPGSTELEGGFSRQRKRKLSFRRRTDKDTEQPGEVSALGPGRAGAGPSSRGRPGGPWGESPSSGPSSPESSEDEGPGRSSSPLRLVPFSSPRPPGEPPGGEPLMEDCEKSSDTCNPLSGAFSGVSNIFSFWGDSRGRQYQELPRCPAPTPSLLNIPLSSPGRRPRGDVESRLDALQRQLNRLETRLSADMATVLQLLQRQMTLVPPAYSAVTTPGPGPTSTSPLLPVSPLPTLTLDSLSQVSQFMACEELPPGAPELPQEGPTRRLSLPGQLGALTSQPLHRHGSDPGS

dopaminergic D3 receptor = dopaminergic D3 receptor (Homo sapiens, UniProt P35462); test: Binding assay D3 (h), [3H]methyl-spiperone, CHO cells; set-up: expressed in transfected cells; host or cells: CHO cells; conditions: read-out: D3 [%]
Sequence of dopaminergic D3 receptor (P35462 whole entry): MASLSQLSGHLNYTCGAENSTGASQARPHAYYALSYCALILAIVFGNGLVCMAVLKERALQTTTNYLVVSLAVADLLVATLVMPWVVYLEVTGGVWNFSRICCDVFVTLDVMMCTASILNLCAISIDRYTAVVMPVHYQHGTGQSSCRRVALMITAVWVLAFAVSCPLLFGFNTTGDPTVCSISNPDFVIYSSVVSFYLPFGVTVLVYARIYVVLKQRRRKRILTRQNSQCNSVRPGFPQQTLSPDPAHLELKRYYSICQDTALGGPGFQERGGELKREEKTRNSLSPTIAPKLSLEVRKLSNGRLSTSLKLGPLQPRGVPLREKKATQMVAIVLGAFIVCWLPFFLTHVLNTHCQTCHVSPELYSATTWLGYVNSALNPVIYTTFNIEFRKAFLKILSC
How it was run: as §1

dopaminergic D2 receptor = dopaminergic D2 receptor (Homo sapiens, UniProt P14416); test: Binding assay D2S (h), [3H]methyl-spiperone, HEK-293 cells; set-up: expressed in transfected cells; host or cells: HEK-293 cells; conditions: read-out: D2 [%]
Sequence of dopaminergic D2 receptor (P14416 1-414 isoform P14416-2): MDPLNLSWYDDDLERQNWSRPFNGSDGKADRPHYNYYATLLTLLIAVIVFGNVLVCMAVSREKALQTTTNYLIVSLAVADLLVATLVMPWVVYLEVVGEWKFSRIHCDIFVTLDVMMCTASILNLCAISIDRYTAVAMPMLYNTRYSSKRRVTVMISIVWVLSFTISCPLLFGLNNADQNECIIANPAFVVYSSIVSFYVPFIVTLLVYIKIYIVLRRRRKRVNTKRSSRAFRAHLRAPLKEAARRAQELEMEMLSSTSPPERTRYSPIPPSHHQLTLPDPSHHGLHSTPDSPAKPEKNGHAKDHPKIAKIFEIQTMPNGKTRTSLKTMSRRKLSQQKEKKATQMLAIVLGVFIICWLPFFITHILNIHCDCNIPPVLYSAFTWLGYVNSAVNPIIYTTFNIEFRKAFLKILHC
How it was run: as §1

adrenergic α1 receptor = test: Binding assay α1 (non-selective), [3H]prazosin, rat cerebral cortex; conditions: percent inhibition of control specific binding; compounds tested at 1×10^−6 M
How it was run: as §1

adrenergic α2C receptor [2] = target: T1, adrenergic α2C receptor (Homo sapiens, UniProt P18825); test: Cellular functional assay, adrenergic α2C receptor (agonism/antagonism); assay type: cell-based; conditions: for activation at 1 µM: agonist effect, percent of control specific agonist response, compounds tested at 1×10^−6M, read-out: α2C −ag [%]; for inhibition at 1 µM: read-out: α2C −antag. [%]
T1 sequence (P18825 1-462): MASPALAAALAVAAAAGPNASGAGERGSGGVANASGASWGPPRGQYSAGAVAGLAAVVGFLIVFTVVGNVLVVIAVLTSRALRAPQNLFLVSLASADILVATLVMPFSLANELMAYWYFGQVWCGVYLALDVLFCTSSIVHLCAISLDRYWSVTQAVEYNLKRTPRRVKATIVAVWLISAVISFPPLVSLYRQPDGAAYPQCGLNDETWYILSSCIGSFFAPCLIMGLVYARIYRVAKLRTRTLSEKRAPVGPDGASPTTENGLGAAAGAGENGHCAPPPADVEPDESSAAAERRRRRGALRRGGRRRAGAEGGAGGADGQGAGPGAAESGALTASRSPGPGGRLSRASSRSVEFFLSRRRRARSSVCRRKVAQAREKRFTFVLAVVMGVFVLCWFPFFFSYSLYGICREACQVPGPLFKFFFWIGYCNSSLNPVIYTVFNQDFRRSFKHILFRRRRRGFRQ
Protocol: (§2) The compounds were tested at the concentration of 1×10^−6M.
(§3) In the Tables ag refers to agonism, and antag to antagonism).

[3] = target: T2, histaminergic H1 receptor (Homo sapiens, UniProt P35367); test: Binding assay H1 (h), [3H]pyrilamine, HEK-293 cells; set-up: expressed in transfected cells; host or cells: HEK-293 cells; conditions: read-out: H1 [%]
T2 sequence (P35367 whole entry): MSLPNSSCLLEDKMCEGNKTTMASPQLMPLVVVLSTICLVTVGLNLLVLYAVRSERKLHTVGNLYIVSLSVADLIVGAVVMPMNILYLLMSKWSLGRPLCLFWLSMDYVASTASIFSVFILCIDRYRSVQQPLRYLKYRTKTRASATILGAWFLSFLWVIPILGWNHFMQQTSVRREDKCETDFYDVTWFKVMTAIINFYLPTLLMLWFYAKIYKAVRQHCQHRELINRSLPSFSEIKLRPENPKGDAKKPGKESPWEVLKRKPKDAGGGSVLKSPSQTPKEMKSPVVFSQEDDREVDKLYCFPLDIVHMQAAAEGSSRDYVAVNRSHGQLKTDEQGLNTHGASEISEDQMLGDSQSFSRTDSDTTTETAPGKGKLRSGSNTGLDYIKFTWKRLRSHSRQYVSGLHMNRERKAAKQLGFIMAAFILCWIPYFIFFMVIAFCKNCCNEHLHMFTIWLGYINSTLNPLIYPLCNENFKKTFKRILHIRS
How it was run: as §1

[4] = target: serotoninergic 5-HT6 receptor (Homo sapiens, UniProt P50406); test: Binding assay 5-HT6 (h), [3H]LSD, CHO cells; set-up: expressed in transfected cells; host or cells: CHO cells; conditions: read-out: 5-HT6
Sequence of serotoninergic 5-HT6 receptor (P50406 whole entry): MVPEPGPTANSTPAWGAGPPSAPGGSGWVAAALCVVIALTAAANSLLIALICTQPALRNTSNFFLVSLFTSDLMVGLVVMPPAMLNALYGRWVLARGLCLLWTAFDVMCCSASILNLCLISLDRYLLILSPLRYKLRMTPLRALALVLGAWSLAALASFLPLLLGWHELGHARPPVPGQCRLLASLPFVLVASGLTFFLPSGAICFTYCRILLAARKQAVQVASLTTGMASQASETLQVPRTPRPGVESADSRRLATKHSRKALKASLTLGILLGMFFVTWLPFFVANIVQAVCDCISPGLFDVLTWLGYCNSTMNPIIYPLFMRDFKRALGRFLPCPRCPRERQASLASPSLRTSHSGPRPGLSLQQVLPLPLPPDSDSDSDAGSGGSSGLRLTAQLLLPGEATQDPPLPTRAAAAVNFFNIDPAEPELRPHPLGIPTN
How it was run: as §1

adrenergic α2C receptor [5] = target: T1, adrenergic α2C receptor; test: Binding assay α2C (h), [3H]RX 821002, CHO cells; set-up: expressed in transfected cells; host or cells: CHO cells; conditions: read-out: α2C [%]
How it was run: as §1

muscarinic M3 receptor = target: T3, muscarinic M3 receptor (Homo sapiens, UniProt P20309); test: Binding assay M3 (h), [3H]4-DAMP, CHO cells; conditions: read-out: M3 [%]
T3 construct: expressed in transfected cells; host or cells: CHO cells
T3 sequence (P20309 whole entry): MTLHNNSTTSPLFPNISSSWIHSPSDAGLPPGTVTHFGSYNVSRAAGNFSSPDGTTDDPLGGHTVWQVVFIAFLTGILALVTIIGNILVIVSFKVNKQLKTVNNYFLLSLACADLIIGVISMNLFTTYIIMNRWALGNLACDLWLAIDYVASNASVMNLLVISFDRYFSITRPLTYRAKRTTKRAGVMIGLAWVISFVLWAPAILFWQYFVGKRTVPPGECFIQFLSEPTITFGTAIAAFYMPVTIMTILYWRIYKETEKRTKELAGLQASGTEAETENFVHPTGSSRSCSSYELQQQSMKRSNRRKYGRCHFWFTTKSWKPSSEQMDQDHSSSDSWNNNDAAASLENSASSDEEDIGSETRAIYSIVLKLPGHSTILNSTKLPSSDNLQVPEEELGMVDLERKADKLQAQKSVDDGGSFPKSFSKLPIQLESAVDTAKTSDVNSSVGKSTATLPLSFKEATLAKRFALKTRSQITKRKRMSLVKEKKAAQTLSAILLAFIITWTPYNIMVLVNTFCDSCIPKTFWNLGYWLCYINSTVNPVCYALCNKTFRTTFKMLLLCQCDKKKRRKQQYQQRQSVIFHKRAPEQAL
How it was run: as §1

[6] = target: T4, serotoninergic 5-HT1A receptor (Homo sapiens, UniProt P08908); test: Binding assay 5-HT1A (h), [3H]8-OH-DPAT, HEK-293 cells; set-up: expressed in transfected cells; host or cells: HEK-293 cells; conditions: read-out: 5-HT1A
T4 sequence (P08908 1-422): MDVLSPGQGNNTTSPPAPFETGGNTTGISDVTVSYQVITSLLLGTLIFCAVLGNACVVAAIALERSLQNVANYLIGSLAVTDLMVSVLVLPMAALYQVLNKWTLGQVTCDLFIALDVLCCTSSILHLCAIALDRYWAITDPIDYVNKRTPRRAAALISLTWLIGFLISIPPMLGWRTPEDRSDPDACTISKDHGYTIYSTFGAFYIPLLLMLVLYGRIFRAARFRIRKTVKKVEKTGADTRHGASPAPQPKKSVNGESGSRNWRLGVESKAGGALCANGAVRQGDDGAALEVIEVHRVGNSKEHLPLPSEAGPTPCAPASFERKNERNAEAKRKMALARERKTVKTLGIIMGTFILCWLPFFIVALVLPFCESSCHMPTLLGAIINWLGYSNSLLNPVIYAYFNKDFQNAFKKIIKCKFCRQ
How it was run: as §1

[7] = target: T2, histaminergic H1 receptor; test: Cellular functional assay, histaminergic H1 receptor (agonism/antagonism); assay type: cell-based; conditions: for activation at 1 µM: agonist effect, percent of control specific agonist response, compounds tested at 1×10^−6M, read-out: H1 -ag [%]; for inhibition at 1 µM: read-out: H1 -antag. [%]
Protocol: as §2, §3

Sequence of serotoninergic 5-HT2A receptor (P28223 whole entry): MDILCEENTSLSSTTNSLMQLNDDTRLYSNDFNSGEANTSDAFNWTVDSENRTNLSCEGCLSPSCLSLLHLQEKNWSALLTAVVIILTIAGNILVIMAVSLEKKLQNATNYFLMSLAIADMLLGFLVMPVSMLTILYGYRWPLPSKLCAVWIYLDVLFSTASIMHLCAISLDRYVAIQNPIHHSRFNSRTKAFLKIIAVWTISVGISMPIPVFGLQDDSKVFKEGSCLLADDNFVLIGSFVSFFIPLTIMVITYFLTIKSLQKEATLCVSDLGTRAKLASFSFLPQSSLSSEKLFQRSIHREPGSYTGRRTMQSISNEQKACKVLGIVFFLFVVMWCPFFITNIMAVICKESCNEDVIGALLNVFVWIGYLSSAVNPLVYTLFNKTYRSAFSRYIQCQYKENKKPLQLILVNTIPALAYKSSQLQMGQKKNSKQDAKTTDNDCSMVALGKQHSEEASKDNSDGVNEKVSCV

| SMILES | inhibition at 1 µM [1] [%] | σ [%] (sigma σ receptor) | hERG [%] (hERG potassium channels) | inhibition at 1 µM (dopaminergic D3 receptor) [%] | inhibition at 1 µM (dopaminergic D2 receptor) [%] | α1 [%] (adrenergic α1 receptor) | activation at 1 µM (adrenergic α2C receptor [2]) [%] | inhibition at 1 µM (adrenergic α2C receptor [2]) [%] | inhibition at 1 µM [3] [%] | inhibition at 1 µM [4] [%] | inhibition at 1 µM (adrenergic α2C receptor [5]) [%] | inhibition at 1 µM (muscarinic M3 receptor) [%] | inhibition at 1 µM [6] [%] | activation at 1 µM [7] [%] | inhibition at 1 µM [7] [%] |
| --- | --- | --- | --- | --- | --- | --- | --- | --- | --- | --- | --- | --- | --- | --- | --- |
| O=S(=O)(NCCCCN1CCN(c2cccc3[nH]ccc23)CC1)c1cnc2ccccn12 [Compound 30, N-{4-[4-(1H-Indol-4-yl)piperazin-1-yl]butyl}-imidazo[1,2-a]pyridine-3-sulphonamide] | 67 | 42 | −3 | 98 | 98 | 96 | 18 | 35 | 40 | 5 | 99 | 66 | 100 | – | – |
| Cc1cccc(S(=O)(=O)NCCCN2CCN(c3nsc4ccccc34)CC2)c1 [Compound 7, N-(3-(4-(1,2-Benzothiazol-3-yl)piperazin-1-yl)propyl)-3-methylbenzenesulphonamide] | 100 | 61 | 14 | 97 | 95 | 98 | -6 | 2 | 93 | 98 | 96 | 13 | 99 | 1 | 70 |
| O=S(=O)(NCCCN1CCC(c2noc3cc(F)ccc23)CC1)c1ccc(F)c(Cl)c1 [Compound 331, 3-Chloro-4-fluoro-N-[3-[4-(6-fluoro-1,2-benzoxazol-3-yl)piperidin-1-yl]propyl]benzenesulphonamide] | 102 | – | 32 | 100 | 100 | – | -14 | 7 | 97 | 97 | 104 | 10 | 82 | 2 | 85 |
| O=S(=O)(NCCCCN1CCN(c2cccc3[nH]ccc23)CC1)c1ccc(F)cc1 [Compound 359, 4-Fluoro-N-[4-[4-(1H-indol-4-yl)piperazin-1-yl]butyl]benzenesulphonamide] | 79 | 85 | 9 | 100 | 96 | 97 | 13 | 38 | 60 | 42 | 99 | 63 | 100 | – | – |
| O=S(=O)(NCCCCN1CCN(c2cccc3[nH]ccc23)CC1)c1cc2ccc(Cl)cc2s1 [Compound 363, 6-Chloro-N-[4-[4-(1H-indol-4-yl)piperazin-1-yl]butyl]benzothiophene-2-sulphonamide] | 98 | 96 | 0 | 101 | 99 | 92 | 17 | 42 | 70 | 84 | 101 | 15 | 101 | – | – |
| O=S(=O)(NCCCCN1CCN(c2nsc3ccccc23)CC1)c1cccc2ccccc12 [Compound 1, N-(4-(4-(1,2-Benzothiazol-3-yl)piperazin-1-yl)butyl)naphthalene-1-sulphonamide] | 99 | 54 | 16 | 96 | 97 | 99 | -9 | 7 | 91 | 95 | 100 | 13 | 96 | 0 | 51 |
| Cc1c(S(=O)(=O)NCCCCN2CCC(c3noc4cc(F)ccc34)CC2)sc2ccc(F)cc12 [Compound 101, 5-Fluoro-N-[4-[4-(6-fluoro-1,2-benzoxazol-3-yl)piperidin-1-yl]butyl]-3-methylbenzothiophene-2-sulphonamide] | 100 | 70 | 14 | 92 | 99 | 99 | 1 | 46 | 97 | 98 | 106 | 14 | 82 | 33 | 94 |
| N#Cc1cccc(S(=O)(=O)NCCCN2CCC(c3noc4cc(F)ccc34)CC2)c1 [Compound 338, 3-cyano-N-[3-[4-(6-fluoro-1,2-benzoxazol-3-yl)piperidin-1-yl]propyl]benzenesulphonamide] | 102 | 72 | 40.5 | 100 | 98 | 99 | -3 | 9 | 95 | 94 | 104 | 1 | 80 | 1 | 51 |
| O=S(=O)(NCCCCN1CCN(c2nsc3ccccc23)CC1)c1ccc2cc(Cl)ccc2c1 [Compound 61, N-[4-[4-(1,2-Benzothiazol-3-yl)piperazin-1-yl]butyl]-6-chloro-naphthalene-2-sulphonamide] | 100 | 46 | 12 | 96 | 100 | 94 | 1 | 18 | 97 | 96 | 101 | 5 | 94 | 1 | 76 |
| O=S(=O)(NCCCCN1CCN(c2noc3ccccc23)CC1)c1ccc2ccccc2c1 [Compound 14, N-(4-(4-(1,2-Benzoxazol-3-yl)piperazin-1-yl)butyl)naphthalene-2-sulphonamide] | 100 | 40 | −1.4 | 97 | 99 | 102 | -3 | 12 | 88 | 99 | 100 | -6 | 88 | – | – |
